From patent US20160310434A1, “GASTRO-RETENTIVE ORAL PHARMACEUTICAL COMPOSITIONS” (ETHYPHARM, priority 2013, published 2016)

Experiments:
Type in all cases: physicochemical
[1] = pH of a saturated solution of baclofen
Source text: (§1) Baclofen (below) is a BCS class III molecule.

[2] = pKa of baclofen
Source text: as §1

[3] = Solubilities of baclofen
Source text: as §1

[4] = Log P of baclofen
Source text: as §1
At usual therapeutic doses, baclofen is known to have good oral bioavailability. However, its low log P indicates some hydrophilicity and thus low permeability. This observation is explained by the presence of specific transporters at the small intestine allowing the molecule to pass. This is even greater at the jejunum. […] This region of the digestive system contains no transporters but since the molecule is hydrophilic and of small size, weak passive transport through the tight junctions is possible. It thus appears that when a higher plasma concentration of baclofen is required, the taking of a higher dose is not effective due to saturation of the transporters. The clinical solution is thus to take small doses at shorter time intervals, which can quickly become burdensome for the patient.

## NCC(CC(=O)O)c1ccc(Cl)cc1 (stereo not drawn) [baclofen, Baclofen]
[1]
  pH of a saturated solution: 6.5
[2]
  pKa1: pKa1 = 3.87
  pKa2: pKa2 = 9.62
[3]; 0.1N HCl
  Solubility: Soluble: 0.1N HCl, 0.1N NaOH
[3]; 0.1N NaOH
  Solubility: Soluble: 0.1N HCl, 0.1N NaOH
[3]; ethanol
  Solubility: Very slightly soluble: ethanol, methanol
[3]; methanol
  Solubility: Very slightly soluble: ethanol, methanol
[3]; water
  Solubility: Slightly soluble: water (3 mg/ml)
[4]
  Log P: −1
